Data as given in US11622970B2, “BCL-2 inhibitors and their use as pharmaceuticals” (PRELUDE THERAPEUTICS INCORPORATED, priority 2020, dated 2023).

Target: BCL-2 recombinant protein (Homo sapiens, UniProt P10415)
Assay: Cell free Bcl-2:Bak affinity assay (Bcl-2 Bak), HTRF competition of FAM-Bak peptide
Assay type: binding
Conditions: 1 μM compound, 4 nM BCL-2 recombinant protein, 100 nM FAM-Bak, read-out: potency (% inhibition at 1 μM)
Experimental: Biological Assays: Cell Free Bcl-2:Bak Affinity Assay (Bcl-2 Bak)
The assay is based on the competition of fluorescently labeled peptide binding to BCL-2 and the binding is monitored by HTRF signals between anti-GST-Tb and FAM-peptide using GST-Tag BCL proteins. Testing compounds were dissolved in DMSO at 10 mM and tested in 10-concentration IC50 mode. The compounds of interest in DMSO were added in 3-fold serial dilution to each well containing 4 nM of BCL-2 recombinant protein, 20 mM K Phosphate, pH 7.5, 50 mM NaCl, 1 mM EDTA, 0.005% Triton X-100, by using acoustic technology (Labcyte echo 550), After 10 minutes incubation at room temperature, 100 nM of FAM-Bak was added and incubated for another 10 minutes before addition of Anti-GST-Tb. The plate was then sealed and further incubated at room temperature for 60 minutes in the dark before reading. Percentage of inhibition was calculated by % inhibition=100×(FDMSO−F)/(FDMSO−FPC), in which FDMSO is DMSO control and FPC is a positive control. IC50 values were determined from dose-response curve by fitting the percent inhibition against compound concentration using GraphPad Prism software.

BCL-2 recombinant protein, sequence (P10415 whole entry): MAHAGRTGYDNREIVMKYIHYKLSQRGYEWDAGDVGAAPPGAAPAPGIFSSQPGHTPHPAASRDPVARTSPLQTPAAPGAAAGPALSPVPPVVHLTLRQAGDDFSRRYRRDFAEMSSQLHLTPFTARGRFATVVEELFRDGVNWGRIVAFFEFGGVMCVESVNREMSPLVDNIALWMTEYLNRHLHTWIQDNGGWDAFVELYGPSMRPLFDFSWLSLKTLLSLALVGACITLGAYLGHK

| Structure (SMILES) | inhibition at 1 µM [%] |
| --- | --- |
| CC1(C)CCC(CN2CCN(c3ccc(S(=O)(=O)NC(=O)c4ccc(F)c(Cl)n4)cc3)CC2)=C(c2ccc(Cl)cc2)C1 [Example 1, 6-Chloro-N-[4-[4-[[2-(4-chlorophenyl)-4,4-dimethylcyclohexen-1-yl]methyl]piperazin-1-yl]phenyl]sulfonyl-5-fluoropyridine-2-carboxamide] | 50 to 90 |
| CC1(C)CCC(CN2CCN(c3ccc(S(=O)(=O)NC(=O)c4ccc([N+](=O)[O-])c(Cl)n4)cc3)CC2)=C(c2ccc(Cl)cc2)C1 [Example 2, 6-chloro-N-[4-[4-[[2-(4-chlorophenyl)-4,4-dimethylcyclohexen-1-yl]methyl]piperazin-1-yl]phenyl]sulfonyl-5-nitropyridine-2-carboxamide] | 50 to 90 |
| CC1(C)CCC(CN2CCN(c3ccc(S(=O)(=O)NC(=O)c4ccc5sccc5c4)cc3)CC2)=C(c2ccc(Cl)cc2)C1 [Example 3, N-[4-[4-[[2-(4-chlorophenyl)-4,4-dimethylcyclohexen-1-yl]methyl]piperazin-1-yl]phenyl]sulfonylbenzo[b]thiophene-5-carboxamide] | 50 to 90 |
| Cc1c(C(=O)NS(=O)(=O)c2ccc(N3CCN(CC4=C(c5ccc(Cl)cc5)CC(C)(C)CC4)CC3)cc2)nnn1Cc1ccccc1 [Example 4, 1-benzyl-N-[4-[4-[[2-(4-chlorophenyl)-4,4-dimethylcyclohexen-1-yl]methyl]piperazin-1-yl]phenyl]sulfonyl-5-methyl-1H-1,2,3-triazole-4-carboxamide] | 50 to 90 |
| CC1(C)CCC(CN2CCN(c3ccc(S(=O)(=O)NC(=O)c4ccc5ncccc5c4)cc3)CC2)=C(c2ccc(Cl)cc2)C1 [Example 5, N-([4-[4-[[2-(4-chlorophenyl)-4,4-dimethylcyclohexen-1-yl]methyl]piperazin-1-yl]phenyl]sulfonyl)quinoline-6-carboxamide] | 50 to 90 |
| CC1(C)CCC(CN2CCN(c3ccc(S(=O)(=O)NC(=O)c4cnccn4)cc3)CC2)=C(c2ccc(Cl)cc2)C1 [Example 6, N-([4-[4-[[2-(4-chlorophenyl)-4,4-dimethylcyclohexen-1-yl]methyl]piperazin-1-yl]phenyl]sulfonyl)pyrazine-2-carboxamide] | 50 to 90 |
| CC1(C)CCC(CN2CCN(c3ccc(S(=O)(=O)NC(=O)C45CC(C4)C5)cc3)CC2)=C(c2ccc(Cl)cc2)C1 [Example 7, N-([4-[4-[[2-(4-chlorophenyl)-4,4-dimethylcyclohexen-1-yl]methyl]piperazin-1-yl]phenyl]sulfonyl)bicyclo[1.1.1]pentane-1-carboxamide] | 50 to 90 |
| Cc1ncc(C(=O)NS(=O)(=O)c2ccc(N3CCN(CC4=C(c5ccc(Cl)cc5)CC(C)(C)CC4)CC3)cc2)cn1 [Example 8, N-([4-[4-[[2-(4-chlorophenyl)-4,4-dimethylcyclohexen-1-yl]methyl]piperazin-1-yl]phenyl]sulfonyl)-2-methylpyrimidine-5-carboxamide] | 50 to 90 |
| CC1(C)CCC(CN2CCN(c3ccc(S(=O)(=O)NC(=O)c4cnc5ccccc5c4)cc3)CC2)=C(c2ccc(Cl)cc2)C1 [Example 9, N-((4-(4-((4′-chloro-5,5-dimethyl-3,4,5,6-tetrahydro-[1,1′-biphenyl]-2-yl)methyl)piperazin-1-yl)phenyl)sulfonyl)quinoline-3-carboxamide] | 50 to 90 |
| CN1C(=O)CCc2cc(C(=O)NS(=O)(=O)c3ccc(N4CCN(CC5=C(c6ccc(Cl)cc6)CC(C)(C)CC5)CC4)cc3)ccc21 [Example 10, N-([4-[4-[[2-(4-chlorophenyl)-4,4-dimethylcyclohexen-1-yl]methyl]piperazin-1-yl]phenyl]sulfonyl)-1-methyl-2-oxo-1,2,3,4-tetrahydroquinoline-6-carboxamide] | 50 to 90 |
| COc1ccccc1C(=O)NS(=O)(=O)c1ccc(N2CCN(CC3=C(c4ccc(Cl)cc4)CC(C)(C)CC3)CC2)cc1 [Example 11, N-([4-[4-[[2-(4-chlorophenyl)-4,4-dimethylcyclohexen-1-yl]methyl]piperazin-yl]phenyl]sulfonyl)-2-methoxybenzamide] | 50 to 90 |
| CC1(C)CCC(CN2CCN(c3ccc(S(=O)(=O)NC(=O)c4cc(C5CC5)on4)cc3)CC2)=C(c2ccc(Cl)cc2)C1 [Example 12, N-([4-[4-[[2-(4-chlorophenyl)-4,4-dimethylcyclohexen-1-yl]methyl]piperazin-1-yl]phenyl]sulfonyl)-5-cyclopropylisoxazole-3-carboxamide] | < 50 |
| CC1(C)CCC(CN2CCN(c3ccc(S(=O)(=O)NC(=O)c4ccc(Br)cn4)cc3)CC2)=C(c2ccc(Cl)cc2)C1 [Example 13, 5-bromo-N-([4-[4-[[2-(4-chlorophenyl)-4,4-dimethylcyclohexen-1-yl]methyl]piperazin-1-yl]phenyl]sulfonyl)pyridine-2-carboxamide] | 50 to 90 |
| Cc1cc(C(=O)NS(=O)(=O)c2ccc(N3CCN(CC4=C(c5ccc(Cl)cc5)CC(C)(C)CC4)CC3)cc2)[nH]n1 [Example 14, N-([4-[4-[[2-(4-chlorophenyl)-4,4-dimethylcyclohexen-1-yl]methyl]piperazin-1-yl]phenyl]sulfonyl)-3-methyl-1H-pyrazole-5-carboxamide] | 50 to 90 |
| CC1(C)CCC(CN2CCN(c3ccc(S(=O)(=O)NC(=O)c4cccc(Cl)c4)cc3)CC2)=C(c2ccc(Cl)cc2)C1 [Example 15, 3-chloro-N-([4-[4-[[2-(4-chlorophenyl)-4,4-dimethylcyclohexen-1-yl]methyl]piperazin-1-yl]phenyl]sulfonyl)benzamide] | 50 to 90 |
| Cc1nc(C(=O)NS(=O)(=O)c2ccc(N3CCN(CC4=C(c5ccc(Cl)cc5)CC(C)(C)CC4)CC3)cc2)ccc1F [Example 16, N-([4-[4-[[2-(4-chlorophenyl)-4,4-dimethylcyclohexen-1-yl]methyl]piperazin-1-yl]phenyl]sulfonyl)-5-fluoro-6-methyl pyridine-2-carboxamide] | 50 to 90 |
| Cc1onc(C(=O)NS(=O)(=O)c2ccc(N3CCN(CC4=C(c5ccc(Cl)cc5)CC(C)(C)CC4)CC3)cc2)c1C [Example 17, N-([4-[4-[[2-(4-chlorophenyl)-4,4-dimethylcyclohexen-1-yl]methyl]piperazin-1-yl]phenyl]sulfonyl)-4,5-dimethylisoxazole-3-carboxamide] | 50 to 90 |
| COCc1cccc(C(=O)NS(=O)(=O)c2ccc(N3CCN(CC4=C(c5ccc(Cl)cc5)CC(C)(C)CC4)CC3)cc2)c1 [Example 18, N-([4-[4-[[2-(4-chlorophenyl)-4,4-dimethylcyclohexen-1-yl]methyl]piperazin-1-yl]phenyl]sulfonyl)-3-(methoxymethyl)benzamide] | 50 to 90 |
| COCc1ccc(C(=O)NS(=O)(=O)c2ccc(N3CCN(CC4=C(c5ccc(Cl)cc5)CC(C)(C)CC4)CC3)cc2)cc1 [Example 19, N-([4-[4-[[2-(4-chlorophenyl)-4,4-dimethylcyclohexen-1-yl]methyl]piperazin-1-yl]phenyl]sulfonyl)-4-(methoxymethyl)benzamide] | 50 to 90 |
| CC1(C)CCC(CN2CCN(c3ccc(S(=O)(=O)NC(=O)c4ccc(Cl)c(Cl)n4)cc3)CC2)=C(c2ccc(Cl)cc2)C1 [Example 20, 5,6-dichloro-N-([4-[4-[[2-(4-chlorophenyl)-4,4-dimethylcyclohexen-1-yl]methyl]piperazin-1-yl]phenyl]sulfonyl)pyridine-2-carboxamide] | 50 to 90 |
| CC1(C)CCC(CN2CCN(c3ccc(S(=O)(=O)NC(=O)c4cccc(C(F)(F)F)n4)cc3)CC2)=C(c2ccc(Cl)cc2)C1 [Example 21, N-([4-[4-[[2-(4-chlorophenyl)-4,4-dimethylcyclohexen-1-yl]methyl]piperazin-1-yl]phenyl]sulfonyl)-6-(trifluoromethyl)pyridine-2-carboxamide] | 50 to 90 |
| CC1(C)CCC(CN2CCN(c3ccc(S(=O)(=O)NC(=O)c4ccncc4C(F)(F)F)cc3)CC2)=C(c2ccc(Cl)cc2)C1 [Example 22, N-([4-[4-[[2-(4-chlorophenyl)-4,4-dimethylcyclohexen-1-yl]methyl]piperazin-1-yl]phenyl]sulfonyl)-3-(trifluoromethyl)pyridine-4-carboxamide] | 50 to 90 |
| CC1(C)CCC(CN2CCN(c3ccc(S(=O)(=O)NC(=O)c4cncc([N+](=O)[O-])c4)cc3)CC2)=C(c2ccc(Cl)cc2)C1 [Example 23, N-([4-[4-[[2-(4-chlorophenyl)-4,4-dimethylcyclohexen-1-yl]methyl]piperazin-1-yl]phenyl]sulfonyl)-5-nitropyridine-3-carboxamide] | 50 to 90 |
| CC1(C)CCC(CN2CCN(c3ccc(S(=O)(=O)NC(=O)c4ccccn4)cc3)CC2)=C(c2ccc(Cl)cc2)C1 [Example 24, N-([4-[4-[[2-(4-chlorophenyl)-4,4-dimethylcyclohexen-1-yl]methyl]piperazin-1-yl]phenyl]sulfonyl)pyridine-2-carboxamide] | 50 to 90 |
| CC1(C)CCC(CN2CCN(c3ccc(S(=O)(=O)NC(=O)c4cc(-c5ccc(F)cc5)no4)cc3)CC2)=C(c2ccc(Cl)cc2)C1 [Example 25, N-([4-[4-[[2-(4-chlorophenyl)-4,4-dimethylcyclohexen-1-yl]methyl]piperazin-1-yl]phenyl]sulfonyl)-3-(4-fluorophenyl)isoxazole-5-carboxamide] | 50 to 90 |
